Assay results from patent US20250388607A1, “A BROMOTAG-BASED TOOLKIT FOR RAPID INDUCTION OF CHEMICALLY INDUCED PROXIMITY” (THE BOARD OF TRUSTEES OF THE LELAND STANFORD JUNIOR …, priority 2024, published 2025).
“Also recorded” adds a separate entry of the source.

Columns and labels:
[1] = target: T1, FKBP12F36V and BromoTag (Homo sapiens, UniProt O60885+P62942, F37V/L387A); assay: NanoBiT assay, FKBP/BromoTag heterodimerization, tags expressed alone; assay type: cell-based; details: all LgBiT and SmBiT tag orientations; FIGS. 1A-1D; HEK293T
T1 construct: BRD4 BD2 L387A mutant tag; LgBiT or SmBiT (NanoBiT subunit); expressed in transfected cells; host or cells: HEK293T
From the text: (§1) FKBP/BromoTag NanoBiT-tagged construct cloning. FKBP12F36V and BromoTag sequences were cloned using Gibson assembly into pBiT1.1-C [TK/LgBiT], pBiT2.1-C [TK/SmBiT], pBiT1.1-N [TK/LgBiT], and pBiT2.1-N [TK/SmBiT] vectors included in the NanoBiT® PPI MCS Starter System kit (Promega #N2014). […] pBiT1.1 and pBiT2.1 vectors were linearized at EcoRI and NheI cut sites, inserts were amplified with PCR, and constructs were ligated using NEBuilder® HiFi DNA Assembly Master Mix.
NanoBiT assay. 15k HEK293T cells per well were plated in 92 ul DMEM+10% FBS in opaque 96-well plates and allowed to adhere overnight, approximately 18-24 hours. HEK293T cells were subsequently transfected with pBiT1.1 (LgBiT-tagged) or pBiT2.1 (SmBiT-tagged) FKBP12F36V and/or BromoTag vectors, using TransIT-LT1 transfection reagent (Mirus #MIR2300) and Opti-MEM (Gibco #31985062). After 24 hours, 25 ul Nano-Glo® Live Cell Reagent was added to each well to measure dimerization signal. Using a PHERAstar FSX, baseline luminescence was measured for five or six cycles (approximately eight to ten minutes). Test dimerizer compounds freshly diluted in DMEM+10% FBS were then manually spiked in and induced luminescence was measured continuously for up to two hours. […]

[2] = target: T2, BromoTag (Homo sapiens, UniProt O60885, L387A); assay: NanoBiT assay, BromoTag homodimerization, tag expressed alone; assay type: cell-based; details: all orientations of LgBiT and SmBiT tags; FIGS. 4A-4D and 5; high background
T2 construct: BRD4 BD2 L387A mutant tag; expressed in transfected cells; host or cells: HEK293T
From the text: as §1
NanoBiT assay. 15k HEK293T cells per well were plated in 92 ul DMEM+10% FBS in opaque 96-well plates and allowed to adhere overnight, approximately 18-24 hours. HEK293T cells were subsequently transfected with pBiT1.1 (LgBiT-tagged) or pBiT2.1 (SmBiT-tagged) FKBP12F36V and/or BromoTag vectors, using TransIT-LT1 transfection reagent (Mirus #MIR2300) and Opti-MEM (Gibco #31985062). After 24 hours, 25 ul Nano-Glo® Live Cell Reagent was added to each well to measure dimerization signal. Using a PHERAstar FSX, baseline luminescence was measured for five or six cycles (approximately eight to ten minutes). Test dimerizer compounds freshly diluted in DMEM+10% FBS were then manually spiked in and induced luminescence was measured continuously for up to two hours. All summary figures were generated with GraphPad Prism. Data for the NanoBit assay is provided in FIGS. 1A-1D, 2A-2B, 3A-3B, 4A-4D, 5, 6A-6B, 7, and 12A-12C.

T1 sequence (P62942 whole entry F37V, other chains not shown): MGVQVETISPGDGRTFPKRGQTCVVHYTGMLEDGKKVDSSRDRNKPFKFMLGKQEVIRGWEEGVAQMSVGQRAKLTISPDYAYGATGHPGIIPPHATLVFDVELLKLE

Compound	max dimerization signal compared with FKBP12WT/FRB-rapamycin (sirolimus) control [1]	max dimerization signal compared with DMSO [2]	max dimerization signal compared with FKBP12WT/FRB-rapamycin control [2]
CC[C@H](C(=O)N1CCCC[C@H]1C(=O)O[C@H](CCc1ccc(OC)c(OC)c1)c1cccc(OCC(=O)NCCCCCCNC(=O)[C@H](CC)[C@@H]2N=C(c3ccc(Cl)cc3)c3c(sc(C)c3C)-n3c(C)nnc32)c1)c1cc(OC)c(OC)c(OC)c1 [MMH-04-74, (R)-1-(3-(2-((6-((R)-2-((S)-4-(4-chlorophenyl)-2,3,9-trimethyl-6H-thieno[3,2-f][1,2,4]triazolo[4,3-a][1,4]diazepin-6-yl)butanamido)hexyl)amino)-2-oxoethoxy)phenyl)-3-(3,4-dimethoxyphenyl)propyl (S)-1-((S)-2-(3,4,5-trimethoxyphenyl)butanoyl)piperidine-2-carboxylate]	dramatically higher max dimerization signal		
CC[C@@H](C(=O)NCCCCCCNC(=O)[C@H](CC)[C@@H]1N=C(c2ccc(Cl)cc2)c2c(sc(C)c2C)-n2c(C)nnc21)[C@@H]1N=C(c2ccc(Cl)cc2)c2c(sc(C)c2C)-n2c(C)nnc21 [MMH-05-01-02, (2R,2′R)-N,N′-(hexane-1,6-diyl)bis(2-((S)-4-(4-chlorophenyl)-2,3,9-trimethyl-6H-thieno[3,2-f][1,2,4]triazolo[4,3-a][1,4]diazepin-6-yl)butanamide)]		improved max dimerization signal over DMSO; also recorded: in most NanoBiT tag orientations have improved signal over DMSO	significantly higher signal; also recorded: outperformed existing FKBP12WT/FRB-rapamycin heterodimerization system
CC[C@@H](C(=O)NCCOCCOCCNC(=O)[C@H](CC)[C@@H]1N=C(c2ccc(Cl)cc2)c2c(sc(C)c2C)-n2c(C)nnc21)[C@@H]1N=C(c2ccc(Cl)cc2)c2c(sc(C)c2C)-n2c(C)nnc21 [MMH-05-01-03, (2R,2′R)-N,N′-((ethane-1,2-diylbis(oxy))bis(ethane-2,1-diyl))bis(2-((S)-4-(4-chlorophenyl)-2,3,9-trimethyl-6H-thieno[3,2-f][1,2,4]triazolo[4,3-a][1,4]diazepin-6-yl)butanamide)]		improved max dimerization signal over DMSO; also recorded: in most NanoBiT tag orientations have improved signal over DMSO	significantly higher signal; also recorded: outperformed existing FKBP12WT/FRB-rapamycin heterodimerization system
